Laboratory results reported in publication PMC6019134, “1,2,6-Thiadiazinones as Novel Narrow Spectrum Calcium/Calmodulin-Dependent Protein Kinase Kinase 2 (CaMKK2) Inhibitors” (Molecules : A Journal of Synthetic Chemistry and Natural …, 2018).
Like-named read-outs stand apart in the source and are kept apart here.

Experiments:
Test in all cases: DSF thermal shift, kinase panel
Type in all cases: binding
CSNK2A1 = target: T1, CSNK2A1 (Homo sapiens, UniProt P68400); details: read-out: ΔTm
T1 construct: purchased in-house (home-made panel, SGC-style construct names)
T1 sequence (P68400 whole entry): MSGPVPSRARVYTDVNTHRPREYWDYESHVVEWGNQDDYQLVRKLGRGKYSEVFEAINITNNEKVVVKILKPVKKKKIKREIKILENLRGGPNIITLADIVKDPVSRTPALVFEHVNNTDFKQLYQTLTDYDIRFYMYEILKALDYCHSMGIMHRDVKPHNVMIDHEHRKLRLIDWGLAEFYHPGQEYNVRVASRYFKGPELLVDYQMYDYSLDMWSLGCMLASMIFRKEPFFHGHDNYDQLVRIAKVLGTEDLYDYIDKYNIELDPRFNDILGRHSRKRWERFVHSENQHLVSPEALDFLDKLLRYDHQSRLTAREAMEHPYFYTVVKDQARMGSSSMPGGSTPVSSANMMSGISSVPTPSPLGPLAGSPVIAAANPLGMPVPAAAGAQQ
Procedure: (§1) The corresponding dianilino-TDZs (1–5) were tested on a panel of 46 protein kinases representing the major kinome branches at a concentration of 10 μM using a Differential Scanning Fluorimetry (DSF). Only analogues 1–3 induced a significant (>2 °C) thermal shift when incubated with a subset of the proteins (Table 1).
(§2) Kinase selectivity assay—A home-made kinase panel was generated for the following enzymes: AAK1, BMP2K, BMX, BRAF, CAMK1D, CAMK1G, CAMKK1, CAMKK2B, CDC42BPA, CDK2, CDKL1, CHEK2, CLK1, CSNK1G1, CSNK1G3, CSNK2A1, DYRK1A, DYRK2A, EPHA2, GAK, GSG2, MAPK1, MAP2K7, MAPK14B, MAPK3, PHKG2, PIM1, PLK1, PKMYT1, PRPF4B, RPS6KA1A, RPS6KA5A, RPS6KA6A, SLK, SRPK1, SRPK2, STK3, STK6, STK10, STK17A, STK24, STK38L, TRIB2, TTK, VRK1 and VRK2. Proteins were produced in E. coli, purified in a Ni-chelate column, followed by overnight digestion using TEV protease (made in house with an N-terminal 6xHis tag) and dialysis to remove imidazole. To clear samples of uncleaved proteins and the TEV protease, samples were loaded on new Ni-chelate columns. The flow through was collected, concentrated and loaded to a HiLoad Superdex 200 16/600 column (GE Healthcare, Chicago, IL, USA) for final polishing and buffer exchange.
(§3) Starting from 100 µM protein stocks, our kinase panel enzymes were diluted to 1 µM in buffer 100 mM K2HPO4 pH 7.5 containing 150 mM NaCl, 10% glycerol and 5X dye (Applied Biosystems catalogue 4461806). The protein/dye mixture was transferred to a 384-well PCR microplate having 20 µL per well. Compounds in DMSO at 10 mM concentration were added in 20 nL volume, using a liquid handling device setup with a pin head, to make 10 µM compound concentration in the assay plate.
(§4) Protein thermal shift data was measured in a qPCR instrument (Applied Biosystems QuantStudio 6) programmed to equilibrate the plate at 25 °C for 5 min followed by ramping the temperature to 95 °C at a rate of 0.05 °C/s. Data was processed using Protein Thermal shift software (Applied Biosystems) by fitting experimental curves to a Boltzmann function to calculate differential thermal shifts (dTm) referenced to protein/dye in 0.2% DMSO.

EPHA2A = target: T2, EPHA2A (Homo sapiens, UniProt P29317); details: 10 μM compound
T2 construct: purchased in-house (home-made panel, SGC-style construct names)
T2 sequence (P29317 24-976): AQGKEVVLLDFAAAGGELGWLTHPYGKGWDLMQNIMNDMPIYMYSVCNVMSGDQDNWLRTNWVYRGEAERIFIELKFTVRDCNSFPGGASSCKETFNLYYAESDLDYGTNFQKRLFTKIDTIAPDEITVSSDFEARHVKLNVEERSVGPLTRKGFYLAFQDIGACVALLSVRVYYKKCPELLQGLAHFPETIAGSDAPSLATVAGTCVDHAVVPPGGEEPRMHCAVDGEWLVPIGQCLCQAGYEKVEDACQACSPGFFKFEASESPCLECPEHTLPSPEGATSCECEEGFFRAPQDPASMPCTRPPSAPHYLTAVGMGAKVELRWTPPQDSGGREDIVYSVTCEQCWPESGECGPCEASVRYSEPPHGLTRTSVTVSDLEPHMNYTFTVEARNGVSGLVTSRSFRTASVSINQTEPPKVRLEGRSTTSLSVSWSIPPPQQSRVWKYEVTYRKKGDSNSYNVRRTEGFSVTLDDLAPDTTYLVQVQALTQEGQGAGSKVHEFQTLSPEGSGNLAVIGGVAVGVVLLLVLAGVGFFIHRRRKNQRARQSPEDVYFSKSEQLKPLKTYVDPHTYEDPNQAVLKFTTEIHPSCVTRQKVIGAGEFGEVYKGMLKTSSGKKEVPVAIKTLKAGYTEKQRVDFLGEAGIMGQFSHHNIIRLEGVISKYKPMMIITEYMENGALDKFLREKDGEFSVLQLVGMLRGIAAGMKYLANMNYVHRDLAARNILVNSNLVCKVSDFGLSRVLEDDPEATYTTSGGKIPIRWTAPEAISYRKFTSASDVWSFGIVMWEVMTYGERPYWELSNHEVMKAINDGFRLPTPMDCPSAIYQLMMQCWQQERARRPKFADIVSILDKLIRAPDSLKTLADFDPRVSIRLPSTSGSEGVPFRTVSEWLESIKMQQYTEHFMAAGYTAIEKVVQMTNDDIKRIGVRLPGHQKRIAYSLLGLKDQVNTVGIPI
Procedure: as §1, §2, §3, §4

STK6A = target: T3, STK6A (Homo sapiens, UniProt O14965); details: 10 μM compound
T3 construct: TEV-cleavable (cleaved yes); made in house; host or cells: E. coli
T3 sequence (O14965 1-403): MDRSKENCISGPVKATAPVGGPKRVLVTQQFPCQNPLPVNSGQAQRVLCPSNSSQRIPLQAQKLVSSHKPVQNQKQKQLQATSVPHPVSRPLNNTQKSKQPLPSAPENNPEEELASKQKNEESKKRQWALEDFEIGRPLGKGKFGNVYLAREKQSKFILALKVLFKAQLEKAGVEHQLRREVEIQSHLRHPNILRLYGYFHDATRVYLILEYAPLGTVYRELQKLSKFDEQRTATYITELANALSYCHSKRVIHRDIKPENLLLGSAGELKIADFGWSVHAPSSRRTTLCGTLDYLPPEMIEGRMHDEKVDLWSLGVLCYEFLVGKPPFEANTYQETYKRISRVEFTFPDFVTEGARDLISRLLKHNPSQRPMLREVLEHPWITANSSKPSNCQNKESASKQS
Procedure: as §1, §2, §3, §4

GSG2A = target: T4, GSG2A (Homo sapiens, UniProt Q8TF76); details: 10 μM compound
T4 construct: purchased in-house (home-made panel, SGC-style construct names)
T4 sequence (Q8TF76 1-798): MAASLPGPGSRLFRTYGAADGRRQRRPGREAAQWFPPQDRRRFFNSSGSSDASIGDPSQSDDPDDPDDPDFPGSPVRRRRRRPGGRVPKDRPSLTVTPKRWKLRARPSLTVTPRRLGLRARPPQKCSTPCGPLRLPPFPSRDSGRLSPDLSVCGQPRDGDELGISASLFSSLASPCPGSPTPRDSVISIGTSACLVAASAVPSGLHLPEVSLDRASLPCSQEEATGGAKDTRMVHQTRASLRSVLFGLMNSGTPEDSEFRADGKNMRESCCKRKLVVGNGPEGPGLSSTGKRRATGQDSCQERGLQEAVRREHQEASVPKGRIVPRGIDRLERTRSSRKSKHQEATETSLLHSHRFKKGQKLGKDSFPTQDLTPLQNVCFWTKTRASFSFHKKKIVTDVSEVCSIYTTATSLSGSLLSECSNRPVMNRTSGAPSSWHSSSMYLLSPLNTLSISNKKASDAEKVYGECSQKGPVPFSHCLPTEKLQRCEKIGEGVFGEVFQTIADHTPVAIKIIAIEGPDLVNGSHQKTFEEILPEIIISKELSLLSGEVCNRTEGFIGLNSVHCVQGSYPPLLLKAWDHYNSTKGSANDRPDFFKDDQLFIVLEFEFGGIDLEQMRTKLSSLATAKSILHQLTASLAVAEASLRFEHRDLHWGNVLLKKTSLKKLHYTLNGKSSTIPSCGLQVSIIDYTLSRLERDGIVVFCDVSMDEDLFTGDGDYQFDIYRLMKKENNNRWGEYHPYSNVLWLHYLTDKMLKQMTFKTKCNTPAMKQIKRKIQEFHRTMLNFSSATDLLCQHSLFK
Procedure: as §1, §2, §3, §4

| SMILES | ΔTm at 10 µM (CSNK2A1; DSF, 10 μM compound) | ΔTm at 10 µM (EPHA2A) | ΔTm at 10 µM (STK6A) | ΔTm at 10 µM (GSG2A) | ΔTm at 10 µM (CSNK2A1) |
| --- | --- | --- | --- | --- | --- |
| CNC(=O)c1ccccc1Nc1nsnc(Nc2ccc(N3CCOCC3)cc2)c1=O [Compound 5, N-Methyl-2-({5-[(4-morpholinophenyl)amino]-4-oxo-4H-1,2,6-thiadiazin-3-yl}amino)benzamide] | -0.4 °C | 0 °C | 0.5 °C | 0.3 °C |  |
| CNC(=O)c1ccccc1Nc1nsnc(Nc2cccc(CS(C)(=O)=O)c2)c1=O [Compound 4, N-Methyl-2-([5-({3-[(methylsulfonyl)methyl]phenyl}amino)-4-oxo-4H-1,2,6-thiadiazin-3-yl]-amino}-benzamide] | -0.4 °C | -0.1 °C | -0.1 °C | 0.4 °C |  |
| Cc1ccc(Nc2nsnc(Nc3cccc(C(N)=O)c3)c2=O)cc1O [Compound 1, 3-({5-[(3-Hydroxy-4-methylphenyl)amino]-4-oxo-4H-1,2,6-thiadiazin-3-yl}amino)benzamide] | -0.9 °C | 0.2 °C | -0.3 °C | 0.6 °C |  |
| Cc1ccc(Nc2nsnc(Nc3ccc(C(N)=O)cc3)c2=O)cc1O [Compound 2, 4-({5-[(3-Hydroxy-4-methylphenyl)amino]-4-oxo-4H-1,2,6-thiadiazin-3-yl}amino)benzamide] |  | 0.5 °C | 1 °C | 1.3 °C | -0.2 °C |
| Cc1ccc(Nc2nsnc(Nc3ccc4c(c3)CS(=O)(=O)C4)c2=O)cc1O [Compound 3, 3-[(2,2-Dioxido-1,3-dihydrobenzo[c]thiophen-5-yl)amino]-5-[(3-hydroxy-4-methylphenyl)amino]-4H-1,2,6-thiadiazin-4-one] | -0.6 °C | 0.8 °C | 0.1 °C | 1.2 °C |  |
